Patent US20050163855A1, “Method of preparing low-crystallinity oltipraz or amorphous oltipraz” (CJ CORPORATION, priority 2004, published 2005)
≈ marks a conversion by molar mass, not a printed value.

What was measured:
[1] = cited from earlier work

solubility (physchem; Cremophor EL, organic solvent or mixture): 9.44 mg/mL (≈ 41.7 mM) | solubility (physchem; Cremophor RH40, organic solvent or mixture): 10.7 mg/mL (≈ 47.2 mM) | solubility (physchem; Dimethylisosorbide, organic solvent or mixture): 17.2 mg/mL (≈ 76.2 mM) | solubility (physchem; Labrasol, organic solvent or mixture): 12.6 mg/mL (≈ 55.6 mM) | solubility (physchem; N,N-dimethylformamide, organic solvent or mixture): 31.3 mg/mL (≈ 138 mM) | solubility (physchem; N-methypyrrolidone, organic solvent or mixture): 13.7 mg/mL (≈ 60.3 mM) | solubility (physchem; Polymethylene glycol 200, organic solvent or mixture): 7.99 mg/mL (≈ 35.3 mM) | solubility (physchem; Polymethylene glycol 400, organic solvent or mixture): 10.5 mg/mL (≈ 46.5 mM) | solubility (physchem; Polypropylene glycol, organic solvent or mixture): 0.57 mg/mL (≈ 2.52 mM) | solubility (physchem; Tetraglycol, organic solvent or mixture): 13.6 mg/mL (≈ 59.9 mM) | solubility (physchem; Transcutol, organic solvent or mixture): 10.3 mg/mL (≈ 45.7 mM) | solubility (physchem; acetone, organic solvent or mixture): 4.05 mg/mL (≈ 17.9 mM) | solubility (physchem; acetonitrile, organic solvent or mixture): 2.73 mg/mL (≈ 12.1 mM) | solubility (physchem; chloroform, organic solvent or mixture): 28.6 mg/mL (≈ 126 mM) | solubility (physchem; dimethyl sulfoxide, organic solvent or mixture): 29.1 mg/mL (≈ 129 mM) | solubility (physchem; ethanol, organic solvent or mixture): 0.67 mg/mL (≈ 2.96 mM) | solubility (physchem; methanol, organic solvent or mixture): 0.5 mg/mL (≈ 2.21 mM) | solubility (physchem; methylene chloride, organic solvent or mixture): 7.6 mg/mL (≈ 33.6 mM)
Compound: Cc1c(-c2cnccn2)ssc1=S [oltipraz]
water solubility [1]: ≤ 0.001 mg/mL
